Where two headings read alike, the source gives them in different places.
How the values were obtained:
CD19 CAR T cells = test: CAR T cell cytokine production (Luminex) under CD19 K562, KIP-1 or CD2/3/28 stimulation; settings: 72 h; for IC50: Homo sapiens, T-cell
[1] = Clinical pharmacokinetic data converted to in vitro concentrations; settings: human, in vivo
Source text: Given the different potencies of the JAK inhibitors and different pharmacokinetic properties for each drug, it was sought to test each drug at a relevant range of physiological concentrations based on clinical dosing and reported pharmacokinetic data from repeat dose studies. Reported Cmax values in patient sera were converted to in vitro concentrations and adjusted for reported plasma protein binding.

CAR-T cells = test: CAR-T cell expansion assay (KIP-1 or CD3/CD28 stimulation); settings: for % viability: CD3/CD28; for % viabili.: CD3/CD28 stimulation; for % viabi.: KIP-1 stimulation
[2] = cited from earlier work
Nalm-6 luc = test: CAR-T cell killing assay (luciferase viability of tumor cells)

CC[C@@H]1CN(C(=O)NCC(F)(F)F)C[C@@H]1c1cnc2cnc3[nH]ccc3n12 [upadacitinib]
IC50 (CD19 CAR T cells; read-out: Suppression of cytokine production, GMCSF (IC50), CD3/CD28 stimulation, 72 h): < 100 nM | IC50 (CD19 CAR T cells; read-out: Suppression of cytokine production, GMCSF (IC50), K562-CD19 stimulation, 72 h): > 10000 nM | IC50 (CD19 CAR T cells; read-out: Suppression of cytokine production, GMCSF (IC50), KIP-1 stimulation, 72 h): < 100 nM | IC50 (CD19 CAR T cells; read-out: Suppression of cytokine production, GzB (IC50), CD3/CD28 stimulation, 72 h): < 100 nM | IC50 (CD19 CAR T cells; read-out: Suppression of cytokine production, GzB (IC50), K562-CD19 stimulation, 72 h): 1030 nM | IC50 (CD19 CAR T cells; read-out: Suppression of cytokine production, GzB (IC50), KIP-1 stimulation, 72 h): > 10000 nM | IC50 (CD19 CAR T cells; read-out: Suppression of cytokine production, IFNg (IC50), CD3/CD28 stimulation, 72 h): > 10000 nM | IC50 (CD19 CAR T cells; read-out: Suppression of cytokine production, IFNg (IC50), KIP-1 stimulation, 72 h): > 10000 nM | IC50 (CD19 CAR T cells; read-out: Suppression of cytokine production, IL-2Ra (IC50), CD3/CD28 stimulation, 72 h): < 100 nM | IC50 (CD19 CAR T cells; read-out: Suppression of cytokine production, IL-2Ra (IC50), K562-CD19 stimulation, 72 h): < 100 nM | IC50 (CD19 CAR T cells; read-out: Suppression of cytokine production, IL-2Ra (IC50), KIP-1 stimulation, 72 h): < 100 nM | IC50 (CD19 CAR T cells; read-out: Suppression of cytokine production, IL-6 (IC50), CD3/CD28 stimulation, 72 h): < 100 nM | IC50 (CD19 CAR T cells; read-out: Suppression of cytokine production, IL-6 (IC50), KIP-1 stimulation, 72 h): < 100 nM | IC50 (CD19 CAR T cells; read-out: Suppression of cytokine production, IL-8 (IC50), CD3/CD28 stimulation, 72 h): < 100 nM | IC50 (CD19 CAR T cells; read-out: Suppression of cytokine production, IL-8 (IC50), K562-CD19 stimulation, 72 h): < 100 nM | IC50 (CD19 CAR T cells; read-out: Suppression of cytokine production, IL-8 (IC50), KIP-1 stimulation, 72 h): < 100 nM | IC50 (CD19 CAR T cells; read-out: Suppression of cytokine production, IL-10 (IC50), CD3/CD28 stimulation, 72 h): < 100 nM | IC50 (CD19 CAR T cells; read-out: Suppression of cytokine production, IL-10 (IC50), K562-CD19 stimulation, 72 h): < 100 nM | IC50 (CD19 CAR T cells; read-out: Suppression of cytokine production, IL-10 (IC50), KIP-1 stimulation, 72 h): < 100 nM | IC50 (CD19 CAR T cells; read-out: Suppression of cytokine production, MCP-1 (IC50), CD3/CD28 stimulation, 72 h): < 100 nM | IC50 (CD19 CAR T cells; read-out: Suppression of cytokine production, MCP-1 (IC50), K562-CD19 stimulation, 72 h): < 100 nM | IC50 (CD19 CAR T cells; read-out: Suppression of cytokine production, MCP-1 (IC50), KIP-1 stimulation, 72 h): < 100 nM | IC50 (CD19 CAR T cells; read-out: Suppression of cytokine production, MIG (IC50), CD3/CD28 stimulation, 72 h): < 100 nM | IC50 (CD19 CAR T cells; read-out: Suppression of cytokine production, MIG (IC50), K562-CD19 stimulation, 72 h): < 100 nM | IC50 (CD19 CAR T cells; read-out: Suppression of cytokine production, MIG (IC50), KIP-1 stimulation, 72 h): < 100 nM | IC50 (CD19 CAR T cells; read-out: Suppression of cytokine production, MIP-1a (IC50), CD3/CD28 stimulation, 72 h): < 100 nM | IC50 (CD19 CAR T cells; read-out: Suppression of cytokine production, MIP-1a (IC50), K562-CD19 stimulation, 72 h): < 100 nM | IC50 (CD19 CAR T cells; read-out: Suppression of cytokine production, MIP-1a (IC50), KIP-1 stimulation, 72 h): 708 nM | IC50 (CD19 CAR T cells; read-out: Suppression of cytokine production, MIP-1b (IC50), CD3/CD28 stimulation, 72 h): < 100 nM | IC50 (CD19 CAR T cells; read-out: Suppression of cytokine production, MIP-1b (IC50), K562-CD19 stimulation, 72 h): < 100 nM | IC50 (CD19 CAR T cells; read-out: Suppression of cytokine production, MIP-1b (IC50), KIP-1 stimulation, 72 h): 146 nM | IC50 (CD19 CAR T cells; read-out: Suppression of cytokine production, Perforin (IC50), CD3/CD28 stimulation, 72 h): < 100 nM | IC50 (CD19 CAR T cells; read-out: Suppression of cytokine production, Perforin (IC50), K562-CD19 stimulation, 72 h): < 100 nM | IC50 (CD19 CAR T cells; read-out: Suppression of cytokine production, Perforin (IC50), KIP-1 stimulation, 72 h): < 100 nM | IC50 (CD19 CAR T cells; read-out: Suppression of cytokine production, TNFa (IC50), CD3/CD28 stimulation, 72 h): < 100 nM | IC50 (CD19 CAR T cells; read-out: Suppression of cytokine production, TNFa (IC50), K562-CD19 stimulation, 72 h): < 100 nM | IC50 (CD19 CAR T cells; read-out: Suppression of cytokine production, TNFa (IC50), KIP-1 stimulation, 72 h): < 100 nM | Suppression of cytokine production, IFNg (IC50) (CD19 CAR T cells; K562-CD19 stimulation): Suppress | Suppression of cytokine production, IL-6 (IC50) (CD19 CAR T cells; K562-CD19 stimulation): Suppress | PPB adj. in Vitro concentration [1]: 97 nM | clinically relevant dose level (in vitro concentration) [1]: ~100 nM | % viability (CAR-T cells; dose 50 nM, day 4): 74.4% | % viability (CAR-T cells; dose 50 nM, day 8): 69.5% | % viability (CAR-T cells; dose 50 nM, day 12): 80.6% | % viability (CAR-T cells; dose 100 nM, day 4): 64.1% | % viability (CAR-T cells; dose 100 nM, day 8): 69.2% | % viability (CAR-T cells; dose 100 nM, day 12): 66.4% | % viabili. (CAR-T cells; 10 nM, Day 0): 84% | % viabili. (CAR-T cells; 10 nM, Day 4): 92.6% | % viabili. (CAR-T cells; 10 nM, Day 8): 88.4% | % viabili. (CAR-T cells; 10 nM, Day 12): 71.6% | % viabili. (CAR-T cells; 20 nM, Day 0): 84% | % viabili. (CAR-T cells; 20 nM, Day 4): 93.8% | % viabili. (CAR-T cells; 20 nM, Day 8): 92% | % viabili. (CAR-T cells; 20 nM, Day 12): 72.7% | % viabili. (CAR-T cells; 40 nM, Day 0): 84% | % viabili. (CAR-T cells; 40 nM, Day 4): 91.4% | % viabili. (CAR-T cells; 40 nM, Day 8): 77% | % viabili. (CAR-T cells; 40 nM, Day 12): 73.2% | % viabili. (CAR-T cells; 60 nM, Day 0): 84% | % viabili. (CAR-T cells; 60 nM, Day 4): 90.6% | % viabili. (CAR-T cells; 60 nM, Day 8): 90.5% | % viabili. (CAR-T cells; 60 nM, Day 12): 76.3% | % viabili. (CAR-T cells; 80 nM, Day 0): 84% | % viabili. (CAR-T cells; 80 nM, Day 4): 88.3% | % viabili. (CAR-T cells; 80 nM, Day 8): 86.4% | % viabili. (CAR-T cells; 80 nM, Day 12): 75% | % viabili. (CAR-T cells; 100 nM, Day 0): 84% | % viabili. (CAR-T cells; 100 nM, Day 4): 84.2% | % viabili. (CAR-T cells; 100 nM, Day 8): 84.3% | % viabili. (CAR-T cells; 100 nM, Day 12): 72.5% | % viabi. (CAR-T cells; 10 nM, Day 0): 84% | % viabi. (CAR-T cells; 10 nM, Day 4): 85.2% | % viabi. (CAR-T cells; 10 nM, Day 8): 72.1% | % viabi. (CAR-T cells; 10 nM, Day 12): 72.7% | % viabi. (CAR-T cells; 20 nM, Day 0): 84% | % viabi. (CAR-T cells; 20 nM, Day 4): 82.1% | % viabi. (CAR-T cells; 20 nM, Day 8): 70.1% | % viabi. (CAR-T cells; 20 nM, Day 12): 74.8% | % viabi. (CAR-T cells; 40 nM, Day 0): 84% | % viabi. (CAR-T cells; 40 nM, Day 4): 79.3% | % viabi. (CAR-T cells; 40 nM, Day 8): 59.3% | % viabi. (CAR-T cells; 40 nM, Day 12): 73.8% | % viabi. (CAR-T cells; 60 nM, Day 0): 84% | % viabi. (CAR-T cells; 60 nM, Day 4): 67.9% | % viabi. (CAR-T cells; 60 nM, Day 8): 76.4% | % viabi. (CAR-T cells; 60 nM, Day 12): 68.9% | % viabi. (CAR-T cells; 80 nM, Day 0): 84% | % viabi. (CAR-T cells; 80 nM, Day 4): 70.9% | % viabi. (CAR-T cells; 80 nM, Day 8): 68.8% | % viabi. (CAR-T cells; 80 nM, Day 12): 62.5% | % viabi. (CAR-T cells; 100 nM, Day 0): 84% | % viabi. (CAR-T cells; 100 nM, Day 4): 59.3% | % viabi. (CAR-T cells; 100 nM, Day 8): 60.9% | % viabi. (CAR-T cells; 100 nM, Day 12): 61.7% | concentration at and above which severe effects on expansion were seen (CAR-T cells; further dose titrations, depending on the mode of stimulation): 20 to 40 nM | Cmax ([2]; clinical dosing, patient sera, repeat dose studies): 73.9 ng/mL | Protein binding ([2]; plasma protein binding, reported): ~50% | Mean tumor cell death (%) (Nalm-6 luc; E:T ratio 1:1, dose 10 nM): 96.9% | Mean tumor cell death (%) (Nalm-6 luc; E:T ratio 1:1, dose 20 nM): 96.3% | Mean tumor cell death (%) (Nalm-6 luc; E:T ratio 1:1, dose 40 nM): 96.3% | Mean tumor cell death (%) (Nalm-6 luc; E:T ratio 1:1, dose 60 nM): 94.5% | Mean tumor cell death (%) (Nalm-6 luc; E:T ratio 1:1, dose 80 nM): 94.4% | Mean tumor cell death (%) (Nalm-6 luc; E:T ratio 1:1, dose 100 nM): 92% | Mean tumor cell death (%) (Nalm-6 luc; E:T ratio 1:3, dose 10 nM): 68.1% | Mean tumor cell death (%) (Nalm-6 luc; E:T ratio 1:3, dose 20 nM): 66.1% | Mean tumor cell death (%) (Nalm-6 luc; E:T ratio 1:3, dose 40 nM): 60.5% | Mean tumor cell death (%) (Nalm-6 luc; E:T ratio 1:3, dose 60 nM): 46.2% | Mean tumor cell death (%) (Nalm-6 luc; E:T ratio 1:3, dose 80 nM): 46.5% | Mean tumor cell death (%) (Nalm-6 luc; E:T ratio 1:3, dose 100 nM): 25.7% | Mean tumor cell death (%) (Nalm-6 luc; E:T ratio 1:9, dose 10 nM): 35.6% | Mean tumor cell death (%) (Nalm-6 luc; E:T ratio 1:9, dose 20 nM): 25.6% | Mean tumor cell death (%) (Nalm-6 luc; E:T ratio 1:9, dose 40 nM): 34.7% | Mean tumor cell death (%) (Nalm-6 luc; E:T ratio 1:9, dose 60 nM): 33.4% | Mean tumor cell death (%) (Nalm-6 luc; E:T ratio 1:9, dose 80 nM): 23% | Mean tumor cell death (%) (Nalm-6 luc; E:T ratio 1:9, dose 100 nM): 16.9%

— US12252701B2, “Chimeric antigen receptor T cell therapy” (KITE PHARMA, INC., priority 2020, dated 2025)
